Each structure is given as a SMILES string. pIC50: −log10 of the molar value.

The target in this test is Sodium-dependent serotonin transporter (Homo sapiens, UniProt P31645). As to the kind of experiment: Binding affinity of [3H]citalopram for serotonin transporter in monkey. Further details: species or system Cercopithecidae.
Sequence of Sodium-dependent serotonin transporter (P31645 whole entry): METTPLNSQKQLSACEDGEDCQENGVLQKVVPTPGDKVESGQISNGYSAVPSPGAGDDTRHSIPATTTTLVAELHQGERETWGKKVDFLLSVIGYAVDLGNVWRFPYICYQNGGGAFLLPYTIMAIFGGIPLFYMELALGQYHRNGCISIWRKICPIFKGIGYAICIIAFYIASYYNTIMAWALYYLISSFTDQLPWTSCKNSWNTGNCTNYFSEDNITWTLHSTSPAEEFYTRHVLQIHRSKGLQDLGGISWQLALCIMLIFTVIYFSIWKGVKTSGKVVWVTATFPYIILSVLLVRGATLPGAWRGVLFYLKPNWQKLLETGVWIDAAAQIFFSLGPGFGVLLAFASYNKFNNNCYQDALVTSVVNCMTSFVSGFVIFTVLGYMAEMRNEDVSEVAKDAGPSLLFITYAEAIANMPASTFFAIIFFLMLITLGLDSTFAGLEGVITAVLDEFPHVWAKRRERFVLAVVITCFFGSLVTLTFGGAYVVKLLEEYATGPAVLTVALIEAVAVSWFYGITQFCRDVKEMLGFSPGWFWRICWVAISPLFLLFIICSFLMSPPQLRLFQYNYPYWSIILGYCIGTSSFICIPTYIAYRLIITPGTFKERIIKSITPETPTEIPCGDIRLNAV
As for `COC(=O)C1C2CC[C@H](C[C@@H]1c1ccc(I)cc1)N2C` (some centres undefined), the pIC50 (usually the IC50 on a negative log10 scale, so that one unit is a factor of ten) is 8.60.

Consider `COC(=O)[C@@H]1C2CCC(C[C@@H]1OC(c1ccc(F)cc1)c1ccc(F)cc1)N2C` (some centres undefined), for which the pIC50 is 5.45. In the case of `COC(=O)[C@@H]1[C@H]2CCC(C[C@H]1OC(c1ccc(F)cc1)c1ccc(F)cc1)N2C` it was 5.74; in that of `COC(=O)C1C2CC[C@H](C[C@@H]1OC(c1ccc(F)cc1)c1ccc(F)cc1)N2C` (stereo in doubt; R-7), 5.26; in that of `COC(=O)C1C2CC[C@H](C[C@H]1OC(c1ccc(F)cc1)c1ccc(F)cc1)N2C` (stereo in doubt; R-8), 5.70. To `COC(=O)C1C2CC[C@H](C[C@@H]1OC(c1ccc(F)cc1)c1ccc(F)cc1)N2C` (stereo in doubt; R-9) belongs 5.84; to `COC(=O)C1C2CC[C@H](C[C@H]1OC(c1ccc(F)cc1)c1ccc(F)cc1)N2C` (stereo in doubt; R-10), 5.04; to `COC(=O)C1C2CC[C@H](C[C@H]1OC(c1ccc(F)cc1)c1ccc(F)cc1)N2C` (stereo in doubt; S-7), 5.39. Compound `COC(=O)C1C2CC[C@H](C[C@H]1OC(c1ccc(F)cc1)c1ccc(F)cc1)N2C` (stereo in doubt; S-10) had a pIC50 of 5.31.
